Test results: patent US9540399B2, “Quinolone derivatives” (priority 2013, dated 2017)
Converted amounts (≈) assume the structure as drawn.

How the values were obtained:
Assay in all cases: Bacterial growth minimal inhibitory concentration, microdilution
Type in all cases: cell-based
[1] = test system: Acinetobacter baumanii T6474; settings: Acinetobacter baumannii, multiply-resistant, quinolone-resistant strain, cation-adjusted Mueller Hinton Broth
Procedure: (§1) Minimal Inhibitory Concentrations (MICs; mg/l) were determined in cation-adjusted Mueller Hinton Broth by a microdilution method following the description given in “Methods for Dilution Antimicrobial Susceptibility Tests for Bacteria that Grow Aerobically”, Approved standard, 7th ed., Clinical and Laboratory Standards Institute (CLSI) Document M7-A7, Wayne, Pa., USA, 2006.
(§2) All Example compounds were tested against several Gram positive and especially Gram negative bacteria. […] Staphylococcus aureus A798, Klebsiella pneumoniae A651 and Acinetobacter baumanii T6474 are multiply-resistant strains (in particular quinolone-resistant), while Moraxella catarrhalis A894 and E. coli ATCC 25922 are quinolone-sensitive strains.

[2] = test system: Staphylococcus aureus A798; settings: multiply-resistant, quinolone-resistant strain, cation-adjusted Mueller Hinton Broth, read-out: MIC for S. aureus A798
Procedure: as §1, §2

[3] = test system: Moraxella catarrhalis A894; settings: quinolone-sensitive strain, cation-adjusted Mueller Hinton Broth
Procedure: as §1, §2

E. coli ATCC 25922 = settings: Escherichia coli, ATCC25922; quinolone-sensitive strain; cation-adjusted Mueller Hinton Broth
Procedure: as §1, §2

[4] = test system: Klebsiella pneumoniae A651; settings: multiply-resistant, quinolone-resistant strain, cation-adjusted Mueller Hinton Broth, read-out: MIC for K. pneumoniae A651
Procedure: as §1, §2

Row | Structure (SMILES) | MIC [1] [µg/mL] | MIC [2] [µg/mL] | MIC [3] [µg/mL] | MIC (E. coli ATCC 25922) [µg/mL] | MIC [4] [µg/mL]
1 | O=C1CSc2ccc(CNC[C@H]3CC[C@H](Nc4nc5c(cc4F)c(=O)c(C(=O)O)cn5C4CC4)CC3)nc2N1 [Example 1, trans-1-Cyclopropyl-6-fluoro-4-oxo-7-(4-{[(3-oxo-3,4-dihydro-2H-pyrido[3,2-b][1,4]thiazin-6-ylmethyl)-amino]-methyl}-cyclohexylamino)-1,4-dihydro-[1,8]naphthyridine-3-carboxylic acid] | 0.125 (≈ 0.226 µM) | 1 (≈ 1.81 µM) | 0.125 (≈ 0.226 µM) | 0.25 (≈ 0.452 µM) | 0.5 (≈ 0.905 µM)
2 | O=C1CSc2ccc(CN[C@H]3CC[C@H](Nc4nc5c(cc4F)c(=O)c(C(=O)O)cn5C4CC4)CC3)nc2N1 [Example 2, trans-1-Cyclopropyl-6-fluoro-4-oxo-7-{4-[(3-oxo-3,4-dihydro-2H-pyrido[3,2-b][1,4]thiazin-6-ylmethyl)-amino]-cyclohexylamino}-1,4-dihydro-[1,8]naphthyridine-3-carboxylic acid] | 0.5 (≈ 0.928 µM) | 4 (≈ 7.43 µM) | 0.25 (≈ 0.464 µM) | 0.5 (≈ 0.928 µM) | 1 (≈ 1.86 µM)
3 | O=C1CSc2ccc(CNC3CCN(CCc4nc5c(cc4F)c(=O)c(C(=O)O)cn5C4CC4)CC3)nc2N1 [Example 3, 1-Cyclopropyl-6-fluoro-4-oxo-7-(2-{4-[(3-oxo-3,4-dihydro-2H-pyrido[3,2-b][1,4]thiazin-6-ylmethyl)-amino]-piperidin-1-yl}-ethyl)-1,4-dihydro-[1,8]naphthyridine-3-carboxylic acid] | 4 (≈ 7.24 µM) | 2 (≈ 3.62 µM) | 0.5 (≈ 0.905 µM) | 0.25 (≈ 0.452 µM) | 1 (≈ 1.81 µM)
4 | O=C1CSc2ccc(CNCCN3CCN(c4nc5c(cc4F)c(=O)c(C(=O)O)cn5C4CC4)CC3)nc2N1 [Example 4, 1-Cyclopropyl-6-fluoro-4-oxo-7-(4-{2-[(3-oxo-3,4-dihydro-2H-pyrido[3,2-b][1,4]thiazin-6-ylmethyl)-amino]-ethyl}-piperazin-1-yl)-1,4-dihydro-[1,8]naphthyridine-3-carboxylic acid] | 2 (≈ 3.61 µM) | > 8 | 0.25 (≈ 0.452 µM) | 1 (≈ 1.81 µM) | 2 (≈ 3.61 µM)
5 | O=C1CSc2ccc(CNCCC3CCN(c4nc5c(cc4F)c(=O)c(C(=O)O)cn5C4CC4)CC3)nc2N1 [Example 5, 1-Cyclopropyl-6-fluoro-4-oxo-7-(4-{2-[(3-oxo-3,4-dihydro-2H-pyrido[3,2-b][1,4]thiazin-6-ylmethyl)-amino]-ethyl}-piperidin-1-yl)-1,4-dihydro-[1,8]naphthyridine-3-carboxylic acid] | 1 (≈ 1.81 µM) | 8 (≈ 14.5 µM) | 0.125 (≈ 0.226 µM) | 0.5 (≈ 0.905 µM) | 2 (≈ 3.62 µM)
6 | O=C1CSc2ccc(CN3CCC(CCNc4nc5c(cc4F)c(=O)c(C(=O)O)cn5C4CC4)CC3)nc2N1 [Example 6, 1-Cyclopropyl-6-fluoro-4-oxo-7-{2-[1-(3-oxo-3,4-dihydro-2H-pyrido[3,2-b][1,4]thiazin-6-ylmethyl)-piperidin-4-yl]-ethylamino}-1,4-dihydro-[1,8]naphthyridine-3-carboxylic acid] | 0.5 (≈ 0.905 µM) | > 8 | 0.5 (≈ 0.905 µM) | 2 (≈ 3.62 µM) | 2 (≈ 3.62 µM)
7 | O=C1CSc2ccc(CNCC3CCN(c4nc5c(cc4F)c(=O)c(C(=O)O)cn5C4CC4)CC3)nc2N1 [Example 7, 1-Cyclopropyl-6-fluoro-4-oxo-7-(4-{[(3-oxo-3,4-dihydro-2H-pyrido[3,2-b][1,4]thiazin-6-ylmethyl)-amino]-methyl}-piperidin-1-yl)-1,4-dihydro-[1,8]naphthyridine-3-carboxylic acid] | 2 (≈ 3.71 µM) | > 8 | 0.031 (≈ 0.0576 µM) | 0.5 (≈ 0.928 µM) | 4 (≈ 7.43 µM)
8 | O=C1COc2ccc(CNC[C@H]3CC[C@H](Nc4nc5c(cc4F)c(=O)c(C(=O)O)cn5C4CC4)CC3)nc2N1 [Example 8, trans-1-Cyclopropyl-6-fluoro-4-oxo-7-(4-{[(3-oxo-3,4-dihydro-2H-pyrido[3,2-b][1,4]oxazin-6-ylmethyl)-amino]-methyl}-cyclohexylamino)-1,4-dihydro-[1,8]naphthyridine-3-carboxylic acid] | > 8 | > 8 | 0.25 (≈ 0.466 µM) | 0.5 (≈ 0.932 µM) | 8 (≈ 14.9 µM)
9 | O=C1CSc2ccc(CNCC3CCN(Cc4nc5c(cc4F)c(=O)c(C(=O)O)cn5C4CC4)CC3)nc2N1 [Example 9, 1-Cyclopropyl-6-fluoro-4-oxo-7-(4-{[(3-oxo-3,4-dihydro-2H-pyrido[3,2-b][1,4]thiazin-6-ylmethyl)-amino]-methyl}-piperidin-1-ylmethyl)-1,4-dihydro-[1,8]naphthyridine-3-carboxylic acid] | 8 (≈ 14.5 µM) | > 8 | 1 (≈ 1.81 µM) | 1 (≈ 1.81 µM) | 2 (≈ 3.62 µM)
10 | O=C1CSc2ccc(CNC3CCN(c4nc5c(cc4F)c(=O)c(C(=O)O)cn5C4CC4)CC3)nc2N1 [Example 10, 1-Cyclopropyl-6-fluoro-4-oxo-7-{4-[(3-oxo-3,4-dihydro-2H-pyrido[3,2-b][1,4]thiazin-6-ylmethyl)-amino]-piperidin-1-yl}-1,4-dihydro-[1,8]naphthyridine-3-carboxylic acid] | 0.25 (≈ 0.477 µM) | 4 (≈ 7.63 µM) | 0.063 (≈ 0.12 µM) | 0.5 (≈ 0.953 µM) | 1 (≈ 1.91 µM)
11 | O=C1CSc2ccc(CNCCN3CCN(c4cc5c(cc4F)c(=O)c(C(=O)O)cn5C4CC4)CC3)nc2N1 [Example 11, 1-Cyclopropyl-6-fluoro-4-oxo-7-(4-{2-[(3-oxo-3,4-dihydro-2H-pyrido[3,2-b][1,4]thiazin-6-ylmethyl)-amino]-ethyl}-piperazin-1-yl)-1,4-dihydro-quinoline-3-carboxylic acid] | > 8 | 8 (≈ 14.5 µM) | 1 (≈ 1.81 µM) | 2 (≈ 3.62 µM) | 8 (≈ 14.5 µM)
12 | O=C1COc2ccc(CNCCN3CCN(c4nc5c(cc4F)c(=O)c(C(=O)O)cn5C4CC4)CC3)nc2N1 [Example 12, 1-Cyclopropyl-6-fluoro-4-oxo-7-(4-{2-[(3-oxo-3,4-dihydro-2H-pyrido[3,2-b][1,4]oxazin-6-ylmethyl)-amino]-ethyl}-piperazin-1-yl)-1,4-dihydro-[1,8]naphthyridine-3-carboxylic acid] | 8 (≈ 14.9 µM) | > 8 | 1 (≈ 1.86 µM) | 2 (≈ 3.72 µM) | 8 (≈ 14.9 µM)
13 | Cn1cc(C(=O)O)c(=O)c2cc(F)c(N[C@H]3CC[C@H](CNCc4ccc5c(n4)NC(=O)CS5)CC3)nc21 [Example 13, trans-6-Fluoro-1-methyl-4-oxo-7-(4-{[(3-oxo-3,4-dihydro-2H-pyrido[3,2-b][1,4]thiazin-6-ylmethyl)-amino]-methyl}-cyclohexylamino)-1,4-dihydro-[1,8]naphthyridine-3-carboxylic acid] | 0.125 (≈ 0.237 µM) | 1 (≈ 1.9 µM) | 0.031 (≈ 0.0589 µM) | 0.063 (≈ 0.12 µM) | 0.25 (≈ 0.475 µM)
14 | Cn1cc(C(=O)O)c(=O)c2cc(F)c(N[C@H]3CC[C@H](CNCc4ccc5c(n4)NC(=O)CO5)CC3)nc21 [Example 14, trans-6-Fluoro-1-methyl-4-oxo-7-(4-{[(3-oxo-3,4-dihydro-2H-pyrido[3,2-b][1,4]oxazin-6-ylmethyl)-amino]-methyl}-cyclohexylamino)-1,4-dihydro-[1,8]naphthyridine-3-carboxylic acid] | 1 (≈ 1.96 µM) | 8 (≈ 15.7 µM) | 0.063 (≈ 0.123 µM) | 0.125 (≈ 0.245 µM) | 1 (≈ 1.96 µM)
15 | CCn1cc(C(=O)O)c(=O)c2cc(F)c(N[C@H]3CC[C@H](CNCc4ccc5c(n4)NC(=O)CS5)CC3)nc21 [Example 15, trans-1-Ethyl-6-fluoro-4-oxo-7-(4-{[(3-oxo-3,4-dihydro-2H-pyrido[3,2-b][1,4]thiazin-6-ylmethyl)-amino]-methyl}-cyclohexylamino)-1,4-dihydro-[1,8]naphthyridine-3-carboxylic acid] | 0.063 (≈ 0.117 µM) | 1 (≈ 1.85 µM) | 0.031 (≈ 0.0573 µM) | 0.125 (≈ 0.231 µM) | 0.5 (≈ 0.925 µM)
16 | Cn1cc(C(=O)O)c(=O)c2cc(F)c(N3CCC(CCNCc4ccc5c(n4)NC(=O)CO5)CC3)nc21 [Example 16, 6-Fluoro-1-methyl-4-oxo-7-(4-{2-[(3-oxo-3,4-dihydro-2H-pyrido[3,2-b][1,4]oxazin-6-ylmethyl)-amino]-ethyl}-piperidin-1-yl)-1,4-dihydro-[1,8]naphthyridine-3-carboxylic acid] | 0.5 (≈ 0.979 µM) | 2 (≈ 3.92 µM) | 0.125 (≈ 0.245 µM) | 0.25 (≈ 0.49 µM) | 1 (≈ 1.96 µM)
17 | Cn1cc(C(=O)O)c(=O)c2cc(F)c(N3CCC(CCNCc4ccc5c(n4)NC(=O)CS5)CC3)nc21 [Example 17, 6-Fluoro-1-methyl-4-oxo-7-(4-{2-[(3-oxo-3,4-dihydro-2H-pyrido[3,2-b][1,4]thiazin-6-ylmethyl)-amino]-ethyl}-piperidin-1-yl)-1,4-dihydro-[1,8]naphthyridine-3-carboxylic acid] | 0.125 (≈ 0.237 µM) | 0.5 (≈ 0.949 µM) | 0.031 (≈ 0.0589 µM) | 0.125 (≈ 0.237 µM) | 0.5 (≈ 0.949 µM)
